Values of other authors in patent US12268783B2, “Platform drug delivery system utilizing crystal engineering and theanine dissolution” (THEAPRIN PHARMACEUTICALS, INC., priority 2015, dated 2025).

Key:
rat brain regions = conditions: rat cerebral cortex, hippocampus and cerebellum
cancer cells = conditions: without an increase in DOX-induced side effects
[1] = test system: human dopaminergic cell line SH-SY5Y; conditions: SH-SY5Y cultures subjected to rotenone and dieldrin, treated or pre-treated with L-Theanine
[2] = test system: APP (Swedish Mutation) transgenic SH-SY5Y cell; conditions: via inhibition of the NMDA receptor pathway
[3] = in humans (so in the source)
[4] = test system: human red blood cells (RBC) exposed to venom or purified venom porin; conditions: RBC exposed to total venom or purified porin

Molecule: CCNC(=O)CC[C@H](N)C(=O)O [Theanine, 5-N-ethyl-glutamine]
- protective effect against aluminum-induced neurotoxicity (rat brain regions): counteracting the damage inflicted by aluminum
- effect on antitumor activity of doxorubicin (DOX) (cancer cells): enhances the antitumor activity of doxorubicin
- DNA fragmentation and apoptotic cell death [1]: decreased DNA fragmentation and apoptotic cell death
- protection against glutamate-induced excitotoxicity [2]: protects
- LD50 toxicity [3]: > 5000 mg/kg

Molecule: zinc gluconate
- potassium efflux from RBC [4]: inhibited potassium efflux
